Among the data in ChEMBL document CHEMBL4229466, “Conformational Propensity and Biological Studies of Proline Mutated LR Peptides Inhibiting Human Thymidylate Synthase and Ovarian Cancer Cell Growth” (J Med Chem, 2018) are IC50, inhibition and Activity values, retold here.

In experiment [1] the test system is C13. As to the kind of experiment: Cytotoxicity against human C13 cells after 72 hrs. Format: functional, cell-based. As to conditions: C13, 72 h.
Experiment [2] relates to IGROV-1. As to the kind of experiment: Cytotoxicity against human IGROV1 cells after 72 hrs. Format: functional, cell-based. As to conditions: IGROV-1, 72 h.
For experiment [3], the system named is 2008. As to the kind of experiment: Cytotoxicity against human 2008 cells. The class given is functional, cell-based.
Experiment [4] addresses Thymidylate synthase (Homo sapiens) (UniProt P04818). Briefly: Inhibition of thymidylate synthase in human IGROV1 cell lysate using [5-3H]dUMP as substrate assessed as decrease in residual activity at 5 uM after 60 mins by liquid scintillation counting analysis relative to control.
For experiment [5], the system named is IGROV-1. Briefly: Effect on HSP90 protein expression in human IGROV1 cells by Western blot analysis. Format: functional, cell-based.
Experiment [6] has as its system IGROV-1. As to the kind of experiment: Effect on DHFR protein expression in human IGROV1 cells by Western blot analysis. The class given is functional, cell-based.
The test system of experiment [7] is IGROV-1. Briefly: Effect on TS protein expression in human IGROV1 cells by Western blot analysis. The class given is functional, cell-based.
Experiment [8] relates to IGROV-1. Briefly: Downregulation of TRAP1 protein levels in human IGROV1 cells by Western blot analysis. The class given is functional, cell-based.

pIC50: −log10 of the molar value. Active and inactive are the calls of the source. No cut-off for these calls is given here. Non-standard residues stand in square brackets, D forms with d. Residues, ends and D or L forms follow the SMILES beside them. Some results are limits rather than exact numbers.

Thymidylate synthase (Homo sapiens), sequence (P04818 2-313 limits assumed): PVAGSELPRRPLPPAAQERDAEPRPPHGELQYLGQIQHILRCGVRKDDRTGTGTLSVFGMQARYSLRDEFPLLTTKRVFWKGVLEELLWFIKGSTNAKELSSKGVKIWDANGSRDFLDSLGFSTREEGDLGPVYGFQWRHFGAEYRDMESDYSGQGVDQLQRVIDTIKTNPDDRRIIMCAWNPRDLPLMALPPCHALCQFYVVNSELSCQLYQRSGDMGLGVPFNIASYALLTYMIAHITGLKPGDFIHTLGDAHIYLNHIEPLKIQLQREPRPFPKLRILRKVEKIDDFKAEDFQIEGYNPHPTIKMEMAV

The term pIC50 denotes the IC50 on a negative log10 scale, so that one unit is a factor of ten. Higher therefore signals a low IC50. For orientation: inhibition means the drop in the measured response relative to a control, in per cent. Regarding `O=c1[nH]cc(F)c(=O)[nH]1` [FLUOROURACIL], the negative logarithm of the IC50 (pIC50) in experiment [1] was 4.92; in experiment [2] it was 4.97; in experiment [3], 5.22. In addition, the inhibition entry in experiment [4] is “Active”.

Take H-LSCQLYQR-OH: the negative-log IC50 (pIC50) is 5.02 in experiment [1], 5.09 in experiment [2] and 5.34 in experiment [3].

Consider `Nc1nc2[nH]cc(CCc3ccc(C(=O)N[C@@H](CCC(=O)O)C(=O)O)cc3)c2c(=O)[nH]1`, for which the result in experiment [5], in experiment [6] and in experiment [7] was Active.

As for H-LSCPLYQR-OH, the result in experiment [5], in experiment [8], in experiment [6] and in experiment [7] was Active. The results for the pIC50 in experiment [1], in experiment [2] and in experiment [3] were 5.09 to 5.45, 4.92 to 5.36 and 5.80 to 6.02, respectively. In addition, in experiment [4], the inhibition was 25%.

With `CC(C)C[C@H](NC(=O)[C@@H](CCC(N)=O)NC(=O)[C@H](CS)NC(=O)[C@H](CO)NC(=O)[C@@H](N)CC(C)C)C(=O)N[C@@H](Cc1ccc(O)cc1)C(=O)N[C@@H](CCC(N)=O)C(=O)N[C@@H](CCCNC(=N)N)C(=O)O` (H-LSC[dQ]LYQR-OH), the result in experiment [8] was Active.

With H-LSPQLYQR-OH, the outcome in experiment [5], in experiment [6] and in experiment [7] was Active. The pIC50 is 5.09 to 5.45 in experiment [1], 5.21 in experiment [2] and 5.80 to 6.02 in experiment [3]. For the same compound, the inhibition in experiment [4] amounted to 25%.

H-LSCQLYPR-OH: the negative logarithm of the IC50 (pIC50) in experiment [1] was 5.09 to 5.45; in experiment [2], 5.36; in experiment [3], 5.80 to 6.02. Moreover, in experiment [4], the inhibition was over 30%.
